Reference: US20240366649A1, “4-ETHYNYL-3-HYDROXY-TETRAHYDROFURANYL-ADENINE PHOSPHORAMIDATES AND RELATED COMPOUNDS AND THEIR USE IN TREATING MEDICAL CONDITIONS” (ROME THERAPEUTICS, INC., priority 2021, published 2024)

Assays:
Format in all cases: cell-based
[1] = system: IFN production in THP1 TREX1 KO cells; assay: Cellular assay for altering IFN production in THP1 TREX1 KO cells; conditions: FIG. 6-8, % induction versus compound concentration
Experimental: THP1-Dual™ KO-TREX1 cells were purchased from Invivogen (cat #thpd-kotrex). The THP1-Dual™ KO-TREX1 cells were cultured in RPMI 1640, 10% heat-inactivated fetal bovine serum, 25 mM HEPES, 10 μg/mL Blasticidin, and […] Zeocin. THP1-Dual™ KO-TREX cells were treated with a dose titration of test compound in the presence of 1 μM 5-aza-2′-deoxycytidine (Sigma, cat #189825). Type 1 Interferon and cell viability were assessed after five days of treatment.
Stock solution of test compound was prepared in DMSO followed by a three-fold dilution in DMSO. Additional 50× dilution was prepared in cell culture media for each dilution. 10 μL of diluted test compound was then added to a 384-well plate.
THP1-Dual™ KO-TREX1 cells were treated with 1 μM 5-aza-2′-deoxycytidine. THP1-Dual™ KO-TREX1 cells (50 μL) were added to each well of the 384-well plate containing test compound titration at 10,000 cells/well. Cells were incubated at 37° C., 5% CO2 in a humidified incubator for five days. On day five, 20 μL of cell supernatant was transferred to a 384-well, white-walled plate, followed by addition to each well of 50 μL of QUANTI-LUC solution containing stabilizer. Luminescence was detected on a plate reader according to manufacturer's instructions.
For certain compounds, the assay was run in a 96-well format, with the following modifications: • 190 μL, instead of 50 μL, of cells were added to each well, to provide 50,000 cells/well, instead of 10,000 cells/well, • Cells were incubated for 6 days, instead of 5 days, • 25 μL, instead of 20 μL, of cell supernatant was added to the white-walled plate for QUANT-LUC treatment; and • 25 μL, instead of 30 μL, of CellTiter-Glo was added to assess cell viability.
Percent inhibition of interferon was calculated using the following analysis: (Average DMSO-Sample)/(Average DMSO-Average 30 μM control reagent)*100. The control reagent for inhibition of interferon was a specific nucleoside reverse-transcriptase inhibitor with molecular weight <600 a.m.u. Percent induction of interferon was calculated using the following analysis: (Sample-Average DMSO)/(10 μM control reagent-Average DMSO)*100. The control reagent for induction of interferon was compound 8 (4′-ethynyl-2-chloro-2′-deoxyadenosine).

[2] = system: Esophageal cancer KYSE-70 cells; assay: Cancer cell viability assay with 3D cell colonies (CellTiter-Glo), KYSE-70; conditions: Homo sapiens, 168 h; KYSE-70, 3D methylcellulose colonies, 7 days
Experimental: (§1) Cancer cell lines were cultured in the following media: • Ovarian cancer OVCAR-8 cells—RPMI media containing 10% FBS • Ovarian cancer SK-OV-3 cells—McCoy's 5a media containing 10% FBS • Ovarian cancer SW756 cells—L-15 (100% air)+10% FBS • Esophageal cancer TE-1 cells—RPMI-1640+10% FBS • Esophageal cancer KYSE-410 cells—RPMI-1640+5˜10% FBS • Esophageal cancer KYSE-70 cells—RPMI-1640+10% h.i.FBS. • Pharyngeal cancer FaDu cells—MEM+0.01 mM NEAA+10% FBS
(§2) Cell colony formation was tested using a 3D methylcellulose-based CellTiter-Glo (CTG) viability assay (Cat. No: G7573, Promega). Briefly, cells were inoculated into 96-well plates (at 1,500 cells per well) into a solution of 0.65% methylcellulose in growth media and incubated overnight at 37° C. in 5% CO2. The next day, serially diluted test compound (islatravir, 4′-ethynyl-2-fluoro-2′-deoxyadenosine) or positive control (cisplatin, Cat. No. 6J015A89, Qilu Pharma) were added at the indicated concentrations, and the cells were incubated for 7 days. On day seven, 100 μL of CTG reagent was added, and the plates were incubated at room temperature for 20 min. Luminescence was read on an Envision Multi Label Reader according to manufacturer's instructions. IC50 values were determined using the following calculation: […]

[3] = system: Ovarian cancer SW756 cells; assay: Cancer cell viability assay with 3D cell colonies (CellTiter-Glo), SW756; conditions: Homo sapiens, 168 h; SW756, 3D methylcellulose colonies, 7 days
Experimental: as §1, §2

[4] = system: Pharyngeal cancer FaDu cells; assay: Cancer cell viability assay with 3D cell colonies (CellTiter-Glo), FaDu; conditions: Homo sapiens, 168 h, 3D methylcellulose colonies, 7 days
Experimental: as §1, §2

[5] = system: Esophageal cancer KYSE-410 cells; assay: Cancer cell viability assay with 3D cell colonies (CellTiter-Glo), KYSE-410; conditions: Homo sapiens, 168 h; KYSE-410, 3D methylcellulose colonies, 7 days
Experimental: as §1, §2

[6] = system: Ovarian cancer OVCAR-8 cells; assay: Cancer cell viability assay with 3D cell colonies (CellTiter-Glo), OVCAR-8; conditions: Homo sapiens, 168 h; OVCAR-8, 3D methylcellulose colonies, 7 days
Experimental: as §1, §2

[7] = system: Ovarian cancer SK-OV-3 cells; assay: Cancer cell viability assay with 3D cell colonies (CellTiter-Glo), SK-OV-3; conditions: Homo sapiens, 168 h; SK-OV-3, 3D methylcellulose colonies, 7 days
Experimental: as §1, §2

[8] = target: LINE1 reverse transcriptase (Homo sapiens, UniProt O00370); assay: Stable artificial-intron Cis LINE1 reporter assay; parameters: expressed in transfected cells; conditions: HeLa L1 artificial-intron reporter cells, doxycycline-induced, 72 h, Firefly luciferase activity
From the text: A stable HeLa Tet-On 3G (Takara, cat no 631183) cell line expressing a bi-directional inducible LINE1 construct was generated as described in Xie, Y. et al. “Cell division promotes efficient retrotransposition in a stable L1 reporter cell line,” Mobile DNA (2013) 4:10. Single cell clones were screened for high Luciferase expression and the highest expression Firefly expressing clone was chosen for compound testing.
Test compounds were serially diluted in DMSO and spotted in 96-well plates. Subsequently the HeLa L1 artificial-intron reporter cells were plated into the compound-containing wells (8,000 cells/well), and the cells were induced for reporter expression with doxycycline (Sigma cat no D9891) at a final concentration of 500 ng/mL. Luminescence was measured 72 h after plating using the Dual-Glo Luciferase Assay System (Promega cat no E2940) following the manufacturer's instructions. The Firefly Luciferase activity (normalized against its activity in a control well without test compound) was used to report LINE1 activity.

LINE1 reverse transcriptase, sequence (O00370 whole entry, looked up): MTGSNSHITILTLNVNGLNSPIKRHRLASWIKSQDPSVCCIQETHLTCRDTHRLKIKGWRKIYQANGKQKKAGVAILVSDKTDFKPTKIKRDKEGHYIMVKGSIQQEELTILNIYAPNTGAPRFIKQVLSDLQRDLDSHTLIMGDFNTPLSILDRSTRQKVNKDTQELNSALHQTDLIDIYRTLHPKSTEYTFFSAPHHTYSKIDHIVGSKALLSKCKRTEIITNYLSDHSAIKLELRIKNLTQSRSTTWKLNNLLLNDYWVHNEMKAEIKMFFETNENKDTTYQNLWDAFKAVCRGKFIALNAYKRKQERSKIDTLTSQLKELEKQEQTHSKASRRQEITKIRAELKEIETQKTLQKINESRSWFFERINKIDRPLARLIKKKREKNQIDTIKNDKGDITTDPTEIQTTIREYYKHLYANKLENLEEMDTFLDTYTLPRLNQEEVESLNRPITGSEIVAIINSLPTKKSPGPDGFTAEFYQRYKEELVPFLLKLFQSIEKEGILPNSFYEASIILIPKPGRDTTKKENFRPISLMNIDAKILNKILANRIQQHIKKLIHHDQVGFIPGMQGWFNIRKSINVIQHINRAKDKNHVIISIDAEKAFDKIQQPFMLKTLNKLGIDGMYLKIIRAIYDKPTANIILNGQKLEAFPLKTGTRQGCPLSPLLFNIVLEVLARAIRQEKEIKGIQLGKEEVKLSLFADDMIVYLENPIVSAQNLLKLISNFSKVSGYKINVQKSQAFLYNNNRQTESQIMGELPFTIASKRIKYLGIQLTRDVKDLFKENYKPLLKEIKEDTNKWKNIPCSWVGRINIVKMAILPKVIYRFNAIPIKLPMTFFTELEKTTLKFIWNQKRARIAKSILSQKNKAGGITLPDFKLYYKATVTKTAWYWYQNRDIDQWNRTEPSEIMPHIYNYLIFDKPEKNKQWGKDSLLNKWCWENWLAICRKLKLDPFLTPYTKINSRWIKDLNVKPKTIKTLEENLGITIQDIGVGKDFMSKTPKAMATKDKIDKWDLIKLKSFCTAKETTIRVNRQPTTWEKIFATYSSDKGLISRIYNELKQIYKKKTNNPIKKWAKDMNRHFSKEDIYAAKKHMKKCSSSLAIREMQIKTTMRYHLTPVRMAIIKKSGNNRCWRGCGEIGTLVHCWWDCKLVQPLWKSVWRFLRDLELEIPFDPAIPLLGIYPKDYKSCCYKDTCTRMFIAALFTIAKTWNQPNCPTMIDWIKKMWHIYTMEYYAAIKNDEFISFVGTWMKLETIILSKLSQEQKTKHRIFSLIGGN

In the case of `C#C[C@]1(CO)O[C@@H](n2cnc3c(N)nc(F)nc32)C[C@@H]1O` [islatravir, 4′-ethynyl-2-fluoro-2′-deoxyadenosine], the “change in IFN levels (figure)” value [1] is reported as “induction of IFN”, the IC50 [2] is reported as 10 to 30 µM and the IC50 [3] is reported as over 30 µM. The IC50 [4] was 10 to 30 µM, the IC50 [5] was over 30 µM and the IC50 [6] was at most 10 µM. It also gave an IC50 [7] of at most 10 µM and an IC50 [8] of at most 0.05 µM.
